What all share (assay): relative viability (nuclei count vs DMSO), 5 days (fraction); higher = more cells survive
Compound in the test “AZD8055 + Foretinib”: COc1ccc(-c2ccc3c(N4CCOC[C@@H]4C)nc(N4CCOC[C@@H]4C)nc3n2)cc1CO [AZD8055] + COc1cc2c(Oc3ccc(NC(=O)C4(C(=O)Nc5ccc(F)cc5)CC4)cc3F)ccnc2cc1OCCCN1CCOCC1 [Foretinib] (partner 0.25 µM)
The method, boiled down:
(§1)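 Each reported value is a median over duplicate plates. It expresses relative viability: treated-well nuclei count divided by vehicle-well nuclei count. Lung cancer cell lines in 1536-well plates were dosed by pin tool a day after seeding, alone with one drug or with a fixed anchor-drug dose plus five library-drug doses (not always all listed) in √10 steps, and nuclei were counted after 5 days.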

Compound in the test “AZD8055 + Pictilisib”: COc1ccc(-c2ccc3c(N4CCOC[C@@H]4C)nc(N4CCOC[C@@H]4C)nc3n2)cc1CO [AZD8055] + CS(=O)(=O)N1CCN(Cc2cc3nc(-c4cccc5[nH]ncc45)nc(N4CCOCC4)c3s2)CC1 [Pictilisib] (partner 1 µM)
The method, boiled down:
as §1

Compound in the test “AZD8055 + AZD7762”: COc1ccc(-c2ccc3c(N4CCOC[C@@H]4C)nc(N4CCOC[C@@H]4C)nc3n2)cc1CO [AZD8055] + NC(=O)Nc1cc(-c2cccc(F)c2)sc1C(=O)N[C@H]1CCCNC1 [AZD7762] (partner 0.2 µM)
Put shortly: as §1

Compound in the test “AZD8055 + Vorinostat”: COc1ccc(-c2ccc3c(N4CCOC[C@@H]4C)nc(N4CCOC[C@@H]4C)nc3n2)cc1CO [AZD8055] + O=C(CCCCCCC(=O)Nc1ccccc1)NO [Vorinostat] (partner 1 µM)
The method, boiled down:
as §1

LOU-NH91: the relative viability with AZD8055 + Foretinib (first compound 0.01 µM) amounted to 0.982; in the test with AZD8055 + Foretinib (first compound 0.03162 µM), 0.891; with AZD8055 + Foretinib (first compound 0.1 µM), 0.761; in the test with AZD8055 + Foretinib (first compound 0.3162 µM) it was 0.562; with AZD8055 + Foretinib (first compound 1 µM) it was 0.561; in the test with AZD8055 + Pictilisib (first compound 0.01 µM), 0.546. Besides, the relative viability with AZD8055 + Pictilisib (first compound 0.03162 µM) was 0.542; with AZD8055 + Pictilisib (first compound 0.1 µM), 0.512; in the test with AZD8055 + Pictilisib (first compound 0.3162 µM), 0.478; in the test with AZD8055 + Pictilisib (first compound 1 µM) it was 0.491; with AZD8055 + AZD7762 (first compound 0.01 µM) it was 0.684; with AZD8055 + AZD7762 (first compound 0.03162 µM) it was 0.702. Moreover, the relative viability in the test with AZD8055 + AZD7762 (first compound 0.1 µM) is 0.621; in the test with AZD8055 + AZD7762 (first compound 0.3162 µM) it was 0.557; with AZD8055 + AZD7762 (first compound 1 µM), 0.555; in the test with AZD8055 + Vorinostat (first compound 0.01 µM), 0.872; with AZD8055 + Vorinostat (first compound 0.03162 µM), 0.95; in the test with AZD8055 + Vorinostat (first compound 0.1 µM), 0.63. The relative viability was 0.596 with AZD8055 + Vorinostat (first compound 0.3162 µM) and 0.57 with AZD8055 + Vorinostat (first compound 1 µM).

Turning to NCI-H2347, the relative viability in the test with AZD8055 + Foretinib (first compound 0.01 µM) worked out at 0.804; with AZD8055 + Foretinib (first compound 0.03162 µM) it was 0.949; with AZD8055 + Foretinib (first compound 0.1 µM) it was 0.454; in the test with AZD8055 + Foretinib (first compound 0.3162 µM), 0.403; with AZD8055 + Foretinib (first compound 1 µM), 0.386; with AZD8055 + Pictilisib (first compound 0.01 µM), 0.65. The relative viability is 0.601 with AZD8055 + Pictilisib (first compound 0.03162 µM); 0.357 with AZD8055 + Pictilisib (first compound 0.1 µM); 0.322 with AZD8055 + Pictilisib (first compound 0.3162 µM); 0.428 in the test with AZD8055 + Pictilisib (first compound 1 µM); 0.781 with AZD8055 + AZD7762 (first compound 0.01 µM); 0.614 in the test with AZD8055 + AZD7762 (first compound 0.03162 µM). Moreover, the relative viability came out at 0.633 in the test with AZD8055 + AZD7762 (first compound 0.1 µM); 0.449 in the test with AZD8055 + AZD7762 (first compound 0.3162 µM); 0.281 in the test with AZD8055 + AZD7762 (first compound 1 µM); 0.424 with AZD8055 + Vorinostat (first compound 0.01 µM); 0.66 in the test with AZD8055 + Vorinostat (first compound 0.03162 µM); 0.406 with AZD8055 + Vorinostat (first compound 0.1 µM). Besides, the relative viability in the test with AZD8055 + Vorinostat (first compound 0.3162 µM) turned out to be 0.304; with AZD8055 + Vorinostat (first compound 1 µM) it was 0.352.

In the case of NCI-H2126, the relative viability is 1.32 with AZD8055 + Foretinib (first compound 0.01 µM); 1.05 in the test with AZD8055 + Foretinib (first compound 0.03162 µM); 0.91 with AZD8055 + Foretinib (first compound 0.1 µM); 0.575 in the test with AZD8055 + Foretinib (first compound 0.3162 µM); 0.593 with AZD8055 + Foretinib (first compound 1 µM); 0.478 in the test with AZD8055 + Pictilisib (first compound 0.01 µM). For the same cell line, the relative viability stood at 0.52 with AZD8055 + Pictilisib (first compound 0.03162 µM); 0.385 with AZD8055 + Pictilisib (first compound 0.1 µM); 0.362 in the test with AZD8055 + Pictilisib (first compound 0.3162 µM); 0.415 in the test with AZD8055 + Pictilisib (first compound 1 µM); 1.03 with AZD8055 + AZD7762 (first compound 0.01 µM); 1.07 with AZD8055 + AZD7762 (first compound 0.03162 µM). The relative viability with AZD8055 + AZD7762 (first compound 0.1 µM) is 0.902; with AZD8055 + AZD7762 (first compound 0.3162 µM) it was 0.587; with AZD8055 + AZD7762 (first compound 1 µM) it was 0.508; in the test with AZD8055 + Vorinostat (first compound 0.01 µM), 0.82; in the test with AZD8055 + Vorinostat (first compound 0.03162 µM), 0.739; with AZD8055 + Vorinostat (first compound 0.1 µM), 0.505. For the same cell line, the relative viability in the test with AZD8055 + Vorinostat (first compound 0.3162 µM) worked out at 0.496; with AZD8055 + Vorinostat (first compound 1 µM), 0.405.

As for HCC-827, the relative viability with AZD8055 + Foretinib (first compound 0.01 µM) amounted to 1.14; in the test with AZD8055 + Foretinib (first compound 0.03162 µM), 0.98; in the test with AZD8055 + Foretinib (first compound 0.1 µM) it was 1.02; in the test with AZD8055 + Foretinib (first compound 0.3162 µM) it was 0.424; in the test with AZD8055 + Foretinib (first compound 1 µM) it was 0.337; with AZD8055 + Pictilisib (first compound 0.01 µM) it was 1.1. In addition, the relative viability with AZD8055 + Pictilisib (first compound 0.03162 µM) was found to be 0.875; with AZD8055 + Pictilisib (first compound 0.1 µM) it was 0.741; with AZD8055 + Pictilisib (first compound 0.3162 µM), 0.495; with AZD8055 + Pictilisib (first compound 1 µM), 0.477; with AZD8055 + AZD7762 (first compound 0.01 µM), 0.203; with AZD8055 + AZD7762 (first compound 0.03162 µM), 0.319. The relative viability with AZD8055 + AZD7762 (first compound 0.1 µM) came out at 0.189; in the test with AZD8055 + AZD7762 (first compound 0.3162 µM) it was 0.212; with AZD8055 + AZD7762 (first compound 1 µM), 0.165; with AZD8055 + Vorinostat (first compound 0.01 µM), 0.849; with AZD8055 + Vorinostat (first compound 0.03162 µM), 0.882; with AZD8055 + Vorinostat (first compound 0.1 µM) it was 0.89. Moreover, the relative viability turned out to be 0.521 with AZD8055 + Vorinostat (first compound 0.3162 µM) and 0.397 with AZD8055 + Vorinostat (first compound 1 µM).

Regarding NCI-H3122, the relative viability turned out to be 0.97 with AZD8055 + Foretinib (first compound 0.01 µM); 1.02 with AZD8055 + Foretinib (first compound 0.03162 µM); 1.05 with AZD8055 + Foretinib (first compound 0.1 µM); 0.396 with AZD8055 + Foretinib (first compound 0.3162 µM); 0.401 with AZD8055 + Foretinib (first compound 1 µM); 0.549 with AZD8055 + Pictilisib (first compound 0.01 µM). Also, the relative viability was 0.47 in the test with AZD8055 + Pictilisib (first compound 0.03162 µM); 0.337 with AZD8055 + Pictilisib (first compound 0.1 µM); 0.272 with AZD8055 + Pictilisib (first compound 0.3162 µM); 0.29 with AZD8055 + Pictilisib (first compound 1 µM); 1.13 with AZD8055 + AZD7762 (first compound 0.01 µM); 1.01 in the test with AZD8055 + AZD7762 (first compound 0.03162 µM). Besides, the relative viability with AZD8055 + AZD7762 (first compound 0.1 µM) came out at 0.594; in the test with AZD8055 + AZD7762 (first compound 0.3162 µM) it was 0.351; in the test with AZD8055 + AZD7762 (first compound 1 µM), 0.187; with AZD8055 + Vorinostat (first compound 0.01 µM) it was 0.809; with AZD8055 + Vorinostat (first compound 0.03162 µM), 0.999; with AZD8055 + Vorinostat (first compound 0.1 µM), 0.877. Also, the relative viability with AZD8055 + Vorinostat (first compound 0.3162 µM) stood at 0.442; in the test with AZD8055 + Vorinostat (first compound 1 µM), 0.338.

In the case of HOP-62, the relative viability with AZD8055 + Foretinib (first compound 0.01 µM) is 1.01; in the test with AZD8055 + Foretinib (first compound 0.03162 µM), 1.01; with AZD8055 + Foretinib (first compound 0.1 µM) it was 1.09; with AZD8055 + Foretinib (first compound 0.3162 µM), 0.609; in the test with AZD8055 + Foretinib (first compound 1 µM), 0.521; in the test with AZD8055 + Pictilisib (first compound 0.01 µM) it was 0.878. Besides, the relative viability with AZD8055 + Pictilisib (first compound 0.03162 µM) turned out to be 0.534; in the test with AZD8055 + Pictilisib (first compound 0.1 µM) it was 0.582; with AZD8055 + Pictilisib (first compound 0.3162 µM), 0.246; with AZD8055 + Pictilisib (first compound 1 µM), 0.259; with AZD8055 + AZD7762 (first compound 0.01 µM), 0.677; with AZD8055 + AZD7762 (first compound 0.03162 µM) it was 0.418. Also, the relative viability was 0.512 with AZD8055 + AZD7762 (first compound 0.1 µM); 0.167 with AZD8055 + AZD7762 (first compound 0.3162 µM); 0.111 in the test with AZD8055 + AZD7762 (first compound 1 µM); 0.636 in the test with AZD8055 + Vorinostat (first compound 0.01 µM); 0.413 in the test with AZD8055 + Vorinostat (first compound 0.03162 µM); 0.587 with AZD8055 + Vorinostat (first compound 0.1 µM). Besides, the relative viability with AZD8055 + Vorinostat (first compound 0.3162 µM) came out at 0.298; with AZD8055 + Vorinostat (first compound 1 µM) it was 0.183.

The values are drawn from the supplement of paper PMC10307832.
